The values that follow come from patent US20210214405A1, “PEPTIDE, METHOD AND COMPOSITION FOR MELANIN POLYMERIZATION AND HAIR DARKENING” (Renorigin Innovation Institute Co., Ltd., priority 2020, published 2021).

This test can be described thus: The polymerization of melanin (melanin pellet, absorbance at 400 nm; light microscope). In kind it is biochemical. The settings on record: 0.025 mg/ml melanin treated with 50 μM peptide for 24 h. As for the experimental part: 0.025 mg/ml melanin was treated with 50 μM peptide for 24 h. Data are represented as the means±SD from three independent experiments. ***p<0.001.
0.025 mg/ml melanin were treated with 50 μM peptides for 24 h, and then centrifuged at 10,000 g for 5 min. The supernatant was removed from the tube, leaving only the melanin pellet. The polymerization of melanin was quantified after boiling in 1 M NaOH for 1 hour and the absorbance was measured spectrophotometrically at 400 nm.
With APRKNVRWCTISQ [SEQ ID NO: 2], the melanin polymerization entry is “did not show effects on melanin polymerization”.

On to CTISQPEWFKCRR [SEQ ID NO: 3], for which the melanin polymerization entry is “did not show effects on melanin polymerization”. The value for RMKKLGAPSI [SEQ ID NO: 15] was “did not show effects on melanin polymerization”.
